Assay results from patent US20060018833A1, “Method and system for screening compounds for muscular and/or neurological activity in animals” (priority 2004, published 2006).

Assays:
teleosts = experiment: Electrically induced seizures in teleost fish, blocking by anticonvulsants; format: in vivo, teleost (Medaka); settings: compound in the water, "(10-80 μM)" printed after phenytoin
Excerpt: Consistent electrical-induced seizures are achieved by optimizing both maximum voltage achieved, overall power delivered during relatively constant current. Electrodes are placed in the wells from above just prior to commencement of the test.
Convulsions are produced by the placing a circular array of 6 stainless steal wire electrodes (around 100 μm in outside diameter) around the perimeter of a single well in a 48 well plate. The electrodes are insulated to the tips on the side of the electrodes that face the inside of the well. In this way the fish is less likely to contact the metal of the electrode that faces the well wall. A seizure is evoked by the application of a constant duration pulse of a constant current sine wave oscillating voltage field. The amount of current applied depends on the electrical impedance of the arrangement. In general around 30 mA of current at around 70 RMS volts is sufficient to produce a reliable seizure in a 2-3 week old Medaka fish. During the pulse the output is randomly scrambled to opposing pairs of the six electrodes via a high voltage MUX circuit. The electronics to produce the above stimulation are apparent to person skilled at the art.
The application of sufficient electrical current to the water containing a fish will evoke a behavioral response. However, at a specific range of current/voltage settings (30-110 V; 20 mA-0.1 mA) an animal will have a seizure, experience a post-ictal period of quiescence and recover. […] Application of a battery of classic anticonvulsants known to block seizure generation in animals will block the expression of seizures in teleost.

zebrafish = experiment: Determining convulsive dose of convulsant added to well water (zebrafish); format: in vivo
Procedure: To establish the minimum seizure threshold dose (CD50) for convulsant agents 5 ml of tank water is placed a single well of a 12-well plate. […] When the animal has acclimated to the new conditions, a solution containing convulsant (e.g. a 20 mM solution of pentylenetetrazol (PTZ) in tank water) is added to the well at a rate of 0.1 ml per minute. The amount of solution being added is constant. The behavior of the fish is then monitored continuously during the rest period beginning with the addition of the convulsant. At the point which the animal has a convulsion the addition is stopped and the animal removed. […] This dose is considered the convulsive dose (>97%) for teleost.

Medaka fish = experiment: Chemically (PTZ) induced seizure activity in Medaka fish, anticonvulsant screen (FIG. 5); format: in vivo
Procedure: One embodiment of the screen for anticonvulsant activity in the presence of a chemical stimulus includess placing a single or plurality of adult (1 month) fish into each well of a 12 well plate. This well contains 4 ml of pure tank water with a defined pH (7.0 can be between 6-8), hardness (90 ppm). The test compounds are then applied to the wells in 12 concentrations ranging from 10 μM to 10 mM. The compounds are diluted from standard DMSO stock solutions stored in other multiwell plates. Test compounds are added as either tank water diluted solutions or as DMSO concentrates. […] The compounds are added to wells after the optical clarity (transmittance) of the well water is determined. Following addition of the compounds to the wells a second transmittance measure is made to determine if the compound has dropped out of solution at any of the concentrations. […] Highly insoluble compounds are solublized in cyclodextrins or mixed with wet fish food, dried and applied at a known amount to wells containing a fish that was not fed for a day.
Plates containing soluble compounds are covered with plastic tops from the manufacturer and placed in an incubator set around 27 degrees centigrade and an oxygen rich atmosphere. […] Fish are examined by the operator for deaths and they are scored as such.
Testing is performed in a visible light darkened, sound dampened room upon a highly diffused infrared light box. […] Excess or erratic activity is automatically determined by a computer algorhythim during a 20 minute control period. […]
The image sequence collected following the administration is examined by a computer program which determines a number of factors about the activity of the fish including orientation, location, distance traveled, and cross sectional area of the fish's silhouette. […] Activity levels reaching specific thresholds and the type of activity (circular swimming and erratic darting) are scored along with periods of quiescence. […] The latency to first seizure and the magnitude and frequency of seizures are scored for each well. […]

Medaka = experiment: Determining convulsive dose of convulsant added to well water (Medaka); format: in vivo; settings: 20 mM PTZ solution added at 0.1 ml per minute to 5 ml tank water
Procedure: To establish the minimum seizure threshold dose (CD50) for convulsant agents 5 ml of tank water is placed a single well of a 12-well plate. A single juvenile teleost is placed in the well and allowed to acclimate for a period of time in a darkened room. When the animal has acclimated to the new conditions, a solution containing convulsant (e.g. a 20 mM solution of pentylenetetrazol (PTZ) in tank water) is added to the well at a rate of 0.1 ml per minute. The amount of solution being added is constant. The behavior of the fish is then monitored continuously during the rest period beginning with the addition of the convulsant. At the point which the animal has a convulsion the addition is stopped and the animal removed. […] This dose is considered the convulsive dose (>97%) for teleost.

Structure (SMILES): NC(=O)N1c2ccccc2C=Cc2ccccc21 [Carbamazepine]
- blocking seizure specific behavioral movements following electrical stimulation (teleosts): capable of blocking seizure specific behavioral movements

Structure (SMILES): C1CCc2nnnn2CC1 [PTZ, pentylenetetrazol]
- seizure evoked, share of fish (zebrafish; adult zebrafish immersed in 5 mM PTZ, within 30 minutes of addition, 10 fish): 100%
- terminal concentration at which the animal has a convulsion (minimum seizure threshold dose, CD50) (zebrafish; zebrafish, 20 mM PTZ solution added at 0.1 ml per minute to 5 ml tank water): around 6 mM
- seizure in well with convulsant only (Medaka fish; FIG. 5 lower left well, 6 mM PTZ): has seizure
- terminal concentration at which the animal has a convulsion (minimum seizure threshold dose, CD50) (Medaka): 10 mM

Structure (SMILES): CCCC(CCC)C(=O)O [Valproate, valproic acid]
- seizure in well with convulsant and anticonvulsant (Medaka fish; FIG. 5 lower right well, 6 mM PTZ and Valproate 5 mM): Only the fish in the lower left well has seizure
- seizure in well with anticonvulsant only (Medaka fish; FIG. 5 upper right well, only valproate 5 mM, no convulsant): Only the fish in the lower left well has seizure

Structure (SMILES): NC(=O)OCC(COC(N)=O)c1ccccc1 [felbamate]
- blocking seizure specific behavioral movements following electrical stimulation (teleosts): capable of blocking seizure specific behavioral movements

Structure (SMILES): NCC1(CC(=O)O)CCCCC1 [gabapentin]
- blocking seizure specific behavioral movements following electrical stimulation (teleosts): capable of blocking seizure specific behavioral movements

Structure (SMILES): O=C1NC(=O)C(c2ccccc2)(c2ccccc2)N1 [phenytoin]
- blocking seizure specific behavioral movements following electrical stimulation (teleosts): capable of blocking seizure specific behavioral movements
